Data: patent EP0267994B2, “The use of a metal complex for the manufacture of a composition for treating dental structures” (NATIONAL RESEARCH LABORATORIES, priority 1986, dated 1988)
Where “and” joins values, the source holds several entries; their conditions need not be identical. Identical values can stand only once.

Assay: case series: professional polishing of the six lower front teeth of heavy calculus formers with MCC paste
Format: in vivo, human
Experimental: This is an example of a series of cases of patients who have been confirmed as heavy calculus formers that were treated with the 1:1 metal complex. Generally, the medication utilized was composed of the active ingredient, disodium monocopper(II) citrate (MCC), C.A.S. Registry Number: 65330-59-8, dispersed in an aqueous vehicle comprising aluminum hydroxide, dicalcium phosphate, sorbitol, carboxymethylcellulose and water to form a paste. All of the cases incorporated herewith, as an example, were confirmed diagnostically by a dentist employing the usual examining techniques, i.e., physical examination, etc. The ages of the patients who participated in this example ranged from 35 to 73 years.
All of the patients in this example, prior to their treatment with the 1:1 metal complexes, had self-treated. In self-treating, all patients brushed with a standard dentifrice, flossed, and applied a mixture of baking soda, salt and water to their teeth at least once a day to contain or control calculus build up. Subsequent to and in conjunction with self-treatment, each patient received professionally a standard course of therapy which involved routinely scaling the teeth with a hand pick and an ultrasonic scaler and polishing the teeth mechanically with a mixture of pumice and stannous fluoride via a rubber prophylaxis cup. The patients in this example were treated every 3, 4 or 6 months and the length of standard treatment by the dentist ranged from about 4 years to about 12 years.
At the time of the first examination by the dentist, each patient's mouth was in extremely poor condition, and gross calculus build up was observed; however, no caries or restorations were present.
Subsequent to the standard professional therapy, treatment of all sides of the six lower front teeth with MCC were initiated and performed by the dentist every 3, 4 or 6 months for a total of 10 months. Treatment consisted of first scaling the six lower front teeth with a hand pick and an ultrasonic scaler to debride the teeth and then polishing the teeth mechanically with the above described MCC mixture via a rubber prophylaxis cup. […] The overall appearance of the six lower front teeth was excellent. […] For a more detailed presentation of this example, see the following table.

For `O=C([O-])CC(O)(CC(=O)[O-])C(=O)O.[Cu+2]` [MCC, disodium-monocopper(II) citrate], the “Amt. of Calculus after Application of MCC” value (Calculus Accumulation code 1 = worst condition, 10 = best condition (total absence of accumulation), one value per patient, six lower front teeth, MCC paste every 3, 4 or 6 months for 10 months) was “+8 (2×) and +9 (2×) and +7”, the “overall appearance of the six lower front teeth” value (after therapy with the copper complex) was “excellent” and the “calculus accumulation on the six lower front teeth” value (all patients, compared to the remaining teeth treated with the standard therapy) was “dramatic reduction in calculus accumulation”. For the same compound, the “side effects or tissue irritation” value (five patients, treatment over 10 months) was “no side effects or tissue irritation” and the taste complaint (two of five patients) was “metallic taste from the MCC mixture which subsided immediately upon rinsing”.
